Results from patent US7470658B2, “Methods for inhibiting tumor metastasis, and peptides useful therefor” (Burnham Institute for Medical Research, priority 1999, dated 2008).

Assays:
[1] = tested on: human melanoma MeWo cells; experiment: In vivo lung metastasis of human melanoma MeWo cells transfected with fucosyltransferase-III; conditions: peptide 500 mg/100 ml/mouse i.v. 20 minutes before cells; after 3 weeks (FIG. 2C)
Method: (§1) The effect of IELLQAR (SEQ ID NO:7) phage and peptides on E-selectin mediated tumor metastasis was examined using mouse B16 melanoma cells or human melanoma MeWo cells transfected with fucosyltransferase-III, an enzyme which synthesizes sLe^x, as described in Kukowska-Latallo et al., Genes & Develop., 4:1288-1303 (1990). […] To test whether the heptapeptide sequence IELLQAR (SEQ ID NO:7) could inhibit metastasis in vivo, mice were injected with IELLQAR (SEQ ID NO:7) phage and with B16 cells through a tail vein and assayed for the presence of metastatic foci.
(§2) Phage (1×10^8 transducing units/100 ml/mouse) or peptide (500 mg/100 ml/mouse), each of which was equivalent to an amount 100 times the concentration required to inhibit binding between HL-60 to E-selectin determined by the in vitro assay described above in Example II (FIG. 1F), were injected intravenously into female mice (C57 black) that were 5-6 weeks old. The control phage lacks a consensus heptapeptide. The control peptide used in these experiments is MAPS alanine. After 20 minutes, metastatic tumor cells (2×10^5 cells) were administered through a tail vein. After 3 weeks, the numbers of metastatic foci appearing in the lung were counted.

[2] = tested on: human lung carcinoma HAL-8 cells; experiment: In vivo lung metastasis of human lung carcinoma HAL-8 cells; design: species or system mouse; conditions: peptide pre-treatment i.v.
Method: as §2
The effect of IELLQAR (SEQ ID NO:7) peptide was assayed in the same manner described above.

[3] = molecular target: E-selectin; experiment: Inhibition of binding between sLe^x-PAA-biotin and E-selectin:IgG by phage or peptides (ELISA); conditions: synthetic peptides (FIG. 1E); read-out: half inhibition value (IC50) of binding between sLe^x and E-selectin
Method: The inhibition of binding between sLe^x and E-selectin:IgG by phage or peptides was assayed by adding five hundred ng of polymeric sLe^x (sLe^x-PAA-biotin, GlycoTech, Rocksville, Md.) to wells in the presence or absence of phage or peptide. After incubating at room temperature for 1 hour, wells were washed with TBS containing CaCl2, and sLe^x-PAA-biotin bound to each selectin was determined using the peroxidase conjugated avidin and peroxidase substrate ABTS (Pierce, Rockford, Ill.). The OD405 was read in an ELISA reader. The synthetic peptides used were linear IELLQAR (SEQ ID NO:7), cyclic CIELLQARC (SEQ ID NO:13) (cysteins linked by disulfide bonds are underlined), and IELLQAR (SEQ ID NO:7) multivalent (Fmoc eight branch), which was synthesized by AnaSpec, Inc. (San Jose, Calif.).

[4] = tested on: mouse B16 melanoma cells; experiment: In vivo lung metastasis of B16 melanoma cells transfected with fucosyltransferase-III; conditions: peptide 500 mg/100 ml/mouse i.v. 20 minutes before 2×10^5 cells; foci counted after 3 weeks (FIG. 2B)
Method: as §1, §2

[5] = tested on: E-selectin:IgG; conditions: comparison value for the heptapeptides; read-out: IC50 by ELISA binding assay using biotinylated sLe^a-PAA and E-selectin:IgG; cited from earlier work
[6] = tested on: B16 melanoma cells in the lung; experiment: Immunohistochemistry of B16 melanoma cells in the lung (anti-melanoma HMB45); assay type: in vivo, mouse; conditions: pre-treated mice, one hour after administration of B16 cells
Method: Next, the immunohistochemistry in the mouse lung of melanoma cells injected intravenously was assayed. Mice were injected intravenously with either control phage, IELLQAR (SEQ ID NO:7) phage, control peptide, or IELLQAR (SEQ ID NO:7) peptide, followed by injection with B16 melanoma cells. One hour after administering B16 melanoma cells, the lungs were fixed in 4% paraformaldehyde and paraffin sections were prepared. The melanoma cells in the lung were visualized by immunostaining using anti-melanoma HMB45 mouse monoclonal IgG1 antibody (DAKO, Carpinteria, Calif.) by the peroxidase method (Vectastatin ABC kit, Vector, Burlingame, Calif.).

[7] = tested on: vascular endothelial cells of the lung; experiment: Mouse lung histochemical analysis after intravenous injection of biotinylated peptide; assay type: in vivo; conditions: i.v. injection, one hour, peroxidase conjugated avidin
Source text: Control peptide corresponding to MAPS alanine and IELLQAR (SEQ ID NO:7) peptide were biotinylated with biotin succinamide (Sigma, St. Louis, Mo.) and injected intravenously into mice. One hour after injection, mice were sacrificed, and tissues were examined histochemically using peroxidase conjugated avidin (Cappel, West Chester, Pa.) by the peroxidase method (Vectastatin ABC kit, Vector, Burlingame, Calif.).

Chain of E-selectin (P16581 22-175 limits assumed): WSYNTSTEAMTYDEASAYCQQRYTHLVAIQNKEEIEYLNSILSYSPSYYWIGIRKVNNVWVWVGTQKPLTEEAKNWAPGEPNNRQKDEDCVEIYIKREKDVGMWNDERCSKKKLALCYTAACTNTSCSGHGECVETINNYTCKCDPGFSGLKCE

Compound: IELLQAR (SEQ ID NO:7) multivalent (Fmoc eight branch) [multivalent IELLQAR peptide, IELLQAR multivalent peptide, Fmoc eight branch MAPS, synthesized by AnaSpec]
- metastases of human melanoma MeWo cells to the lung [1]: inhibited efficiently
- metastases of human lung carcinoma HAL-8 cells to the lung [2]: inhibited efficiently
- IC50 [3]: 10 µM
- metastasis of B16 melanoma to the lung, peptide pre-treatment [4]: effective in preventing metastasis

Compound: CC(=O)N[C@H]1[C@H](O[C@H]2[C@@H](O)[C@@H](CO)OC(O)[C@@H]2O)O[C@H](CO)[C@@H](O[C@@H]2O[C@H](CO)[C@H](O)[C@H](O[C@]3(C(=O)O)C[C@H](O)[C@@H](NC(C)=O)[C@H]([C@H](O)[C@H](O)CO)O3)[C@H]2O)[C@@H]1O[C@@H]1O[C@@H](C)[C@@H](O)[C@@H](O)[C@@H]1O (some centres unmarked) [sLe^x oligosaccharide, NeuNAcα2→3Galβ1→4(Fucα1→3)GlcNAcβ1→3Gal]
- IC50 [5]: 550 µM

Compound: IELLQAR [linear heptapeptide]
- IC50 [3]: 200 µM

Compound: IELLQAR [IELLQAR peptide, synthetic IELLQAR peptide injected into mice]
- state of B16 melanoma cells in lung tissue sections [6]: non-adherent and appeared apoptotic
- staining of biotinylated peptide on lung vascular endothelium [7]: detected on the vascular surface epithelium of the lung
